Measured values reported in US7038074B2, “Arginine mimetics as factor Xa inhibitors” (Wilex AG, priority 2000, dated 2006).
Entries after “also recorded” stand apart in the source; their conditions may differ. Where two headings read alike, the source gives them in different places.

Key:
[1] = system: factor Xa; test: Determining the inhibitor constants (Ki, Dixon), factor Xa; type: biochemical, bovine or human
Experimental: (§1) The measurements were carried out at 25° C. on a microplate reader (MR 5000, Dynatech, Denkendorf, Germany). The test medium consisted of 200 μl of Tris buffer (0.05 M; 0.154 M NaCl, 5% ethanol, pH 8.0), 25 μl of aqueous substrate solution and 50 μl of enzyme solution. Two concentrations of the substrate and five concentrations of the inhibitor were used. Three minutes after adding the enzyme, 25 μl of acetic acid (50%) were added in order to quench the reaction and the optical density was measured at 405 nm. The Ki values were calculated in accordance with Dixon (M. Dixon (1953), Biochem. J. 55, 170–171) using a linear regression. The Ki values given in FIGS. 2 and 3 are means of at least three determinations.
(§2) The following enzymes and the corresponding substrates were used at the given final concentrations: bovine thrombin, prepared in accordance with Walsmann (P. Walsmann (1968), Pharmazie 23, 401–402) (2 262 U/mg, final concentration 0.45 U/ml), substrate MeSO2-D-hexahydrotyrosyl-Gly-Arg-pNA (final concentration 0.18 and 0.09 mM); bovine factor Xa (5 U/vial, 0.11 U/ml; Diagnostic Reagents Ltd., Thame, UK), substrate MeSO2-D-Nle-Gly-Arg-pNA (0.36 and 0.18 mM); human factor Xa (0.18 μg/ml; Kordia Lab. Supplies, Leiden, Netherlands), substrate as for bovine factor Xa human plasmin (0.67 CTA U/mg, 0.06 CTA U/ml; Behringwerke AG, Marburg, Germany), substrate Tos-Gly-Pro-Lys-pNA (0.18 and 0.09 mM); human uPA (500 000 U/vial, final concentration 150 U/ml; Ribosepharm GmbH Haan, Germany), substrate Bz-βAla-Gly-Arg-pNA (0.18 and 0.09 mM); bovine pancreas trypsin (42 U/mg, 0.0038 U/ml; Serva, Heidelberg, Germany), substrate MeSO2-D-hexahydrotyrosyl-Gly-Arg-pNA (0.18 and 0.06 mM).

[2] = biological target: T1, human uPA (Homo sapiens, UniProt P00749); test: Determining the inhibitor constants, uPA; type: biochemical
T1 construct: purchased Ribosepharm GmbH Haan, Germany
Experimental: as §1, §2

[3] = biological target: T2, bovine pancreas trypsin (Bos taurus, UniProt P00760); test: Determining the inhibitor constants, trypsin; type: biochemical
T2 construct: purchased Serva, Heidelberg, Germany; host or cells: bovine pancreas
T2 sequence (P00760 24-246): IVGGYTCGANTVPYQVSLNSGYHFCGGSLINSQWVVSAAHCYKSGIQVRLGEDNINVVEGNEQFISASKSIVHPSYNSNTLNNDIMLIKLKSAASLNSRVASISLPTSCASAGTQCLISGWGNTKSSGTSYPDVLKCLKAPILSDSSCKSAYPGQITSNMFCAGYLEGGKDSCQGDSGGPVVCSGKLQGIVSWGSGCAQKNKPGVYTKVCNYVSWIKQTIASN
Experimental: as §1, §2

[4] = biological target: factor Xa; settings: prior art, Gabriel et al. 1998; cited from earlier work
[5] = biological target: T3, bovine thrombin (Bos taurus, UniProt P00735); test: Determining the inhibitor constants, thrombin; type: biochemical
T3 construct: converts the zymogen prothrombin into its active form thrombin; made in house
Experimental: as §1, with “determinations. […]” for “determinations.”

[6] = biological target: T4, factor Xa (UniProt P00743); test: Determining the inhibitor constants (Ki, Dixon), factor Xa; type: biochemical, bovine or human; settings: for Ki: 25° C., pH 8.0, species of factor Xa not given
T4 construct: Ki factor Xa; other: 25° C., pH 8.0; factor Xa activity of the D-enantiomer relative to the L-enantiomer 27; other: compound 28 versus compound 27; other: relative to compound 31
Experimental: as §1, §2

[7] = Chemical and enzymic stability, stability towards acids; type: physicochemical; settings: for example stomach acids

inhibition of / affinity for trypsin (in words) [3]	inhibitory effect on factor Xa (in words) [1]	Compound	inhibition of uPA (in words) [2]	other results
		COC(=O)C(Cc1cccc(C(=N)N)c1)NC(=O)OC12CC3CC(CC(C3)C1)C2.Cl (racemic) [Compound 11, N-1-adamantyloxycarbonyl-D,L-3-amidinophenylalanine methyl ester hydrochloride]		selectivity for factor Xa vis-à-vis uPA, thrombin and trypsin [1]: remarkable selectivity; inhibitory effect on factor Xa (in words) ([1]; hydrochloride): significantly increased inhibitory effect; also recorded: submicromolar inhibition
almost identical affinity		COC(=O)[C@H](Cc1cccc(C(=N)N)c1)NC(=O)OC12CC3CC(CC(C3)C1)C2.Cl [Compound 27, N-1-adamantyloxycarbonyl-L-3-amidinophenylalanine methyl ester hydrochloride]	only capable of recognizing the L-enantiomer	
		CCOC(=O)C(Cc1ccc(C(=N)N)cc1)NC(=O)CNS(=O)(=O)c1ccc(C(=N)N)cc1 (racemic) [Compound 2, N^α-4-amidinobenzenesulfonylglycyl-D,L-4-amidinophenylalanine ethyl ester]		Ki [4]: 500 nM
	does not show any important differences	Cl.N=C(N)c1cccc(CC(NC(=O)OC23CC4CC(CC(C4)C2)C3)C(=O)N2CCCCC2)c1 [Compound 17, N-1-adamantyloxycarbonyl-D,L-3-amidinophenylalanine piperidide hydrochloride]		
dramatic loss in inhibitory activity	dramatic loss in inhibitory activity	COC(=O)C(Cc1ccc(NC(=N)N)cc1)NC(=O)OC12CC3CC(CC(C3)C1)C2.Cl (racemic) [Compound 26, N-1-adamantyloxycarbonyl-D,L-4-guanidinophenylalanine methyl ester hydrochloride]	dramatic loss in inhibitory activity	inhibition of thrombin (in words) [5]: dramatic loss in inhibitory activity
	even more powerful inhibitory effect	N=C(N)c1cccc(C[C@@H](NC(=O)NC23CC4CC(CC(C4)C2)C3)C(=O)NCCc2ccccc2)c1 [Compound 32, N-(1-adamantylaminocarbonyl)-D-3-amidinophenylalanine-(2-phenyl)-1-ethylamide]		factor by which FXa is inhibited better than by compound 31 ([6]; relative to compound 31): 3
		Cl.N=C(N)c1cccc(C[C@@H](NC(=O)OC23CC4CC(CC(C4)C2)C3)C(=O)NCCc2ccccc2)c1 [Compound 31, N-1-adamantyloxycarbonyl-D-3-amidinophenylalanine-(2-phenyl)-1-ethylamine hydrochloride]		inhibitory effect on factor Xa (in words) ([1]; hydrochloride): strongest inhibitor; inhibitory effect on factor Xa (in words) ([1]; listed as N-1-adamantyloxycarbonyl-D-3-amidinophenylalanine-(2-phenyl)-1-ethylamide, hydrochloride): very powerful inhibitory effect; Ki [6]: 74 nM
almost identical affinity		COC(=O)[C@@H](Cc1cccc(C(=N)N)c1)NC(=O)OC12CC3CC(CC(C3)C1)C2.Cl [Compound 28, N-1-adamantyloxycarbonyl-D-3-amidinophenylalanine methyl ester hydrochloride]	only capable of recognizing the L-enantiomer	Ki [6]: 390 nM; factor Xa activity of the D-enantiomer relative to the L-enantiomer 27 ([6]; compound 28 versus compound 27): about 10 times
		COC(=O)C(Cc1cccc(C(=N)N)c1)NC(=O)NC12CC3CC(CC(C3)C1)C2.Cl (racemic) [Compound 12, N-1-adamantylaminocarbonyl-D,L-3-amidinophenylalanine methyl ester hydrochloride]	dramatic effects on the inhibition of uPA	stability (acids; chemical and enzymic) [7]: desirable stability towards acids

Compound	inhibition of / affinity for trypsin (in words) [3]	inhibitory effect on factor Xa (in words) [1]	inhibition of uPA (in words) [2]	other results
Cl.N=C(N)c1cccc(CC(NC(=O)OC23CC4CC(CC(C4)C2)C3)C(=O)O)c1 (racemic) [Compound 15, N-1-adamantyloxylcarbonyl-D,L-3-amidinophenylalanine hydrochloride]		does not show any important differences		
